Assay results: ChEMBL document CHEMBL3885861, “Open TG-GATES”

Species on record: Rattus norvegicus
Assay: Open TG-GATES - Regimen: Single
Type: toxicity, organism-based, Sprague-Dawley
Set-up: regimen Single, gender Male, age 6 weeks
Conditions: in vivo, po, 30 mg/kg, route gavage, dose level High; for APTT / Bas / Eos / Fbg / Hb / Ht / Lym / MCH / MCHC / MCV / Mono / Neu / PT / Plat / RBC / Ret / WBC: tissue Blood; for KIDNEY_L / KIDNEY_R / KIDNEY_TOTAL: tissue Kidney; for LIVER: tissue Liver; for A/G / ALP / ALT / AST / BUN / CRE / Ca / Cl / DBIL / GLC / IP / K / LDH / Na / PL / RALB / TBIL / TC / TG / TP / gamma-GTP: tissue Plasma

C[C@H]1C(=O)O[C@@H]2CCN3CC=C(COC(=O)[C@](C)(O)[C@]1(C)O)[C@H]23 [MONOCROTALINE]
TERMINAL_BW (3 h): 209.7 g
APTT (3 h): 21.1 s
Bas (3 h): 0%
Eos (3 h): 1.2%
Fbg (3 h): 305.4 mg/dL
Hb (3 h): 13.2 g/dL
Ht (3 h): 38.8%
Lym (3 h): 76.4%
MCH (3 h): 21.5 pg
MCHC (3 h): 34%
MCV (3 h): 63.2 fL
Mono (3 h): 2.2%
Neu (3 h): 19.6%
PT (3 h): 16.2 s
Plat (3 h): 119.2 x10_4/uL
RBC (3 h): 615.6 x10_4/ul
Ret (3 h): 8.9%
WBC (3 h): 71.5 x10_2/uL
KIDNEY_L (3 h): 0.9 g
KIDNEY_R (3 h): 0.9 g
KIDNEY_TOTAL (3 h): 1.8 g
LIVER (3 h): 9.5 g
A/G (3 h): 1.4
ALP (3 h): 1720.6 IU/L
ALT (3 h): 40.8 IU/L
AST (3 h): 76.4 IU/L
BUN (3 h): 13.2 mg/dL
CRE (3 h): 0.2 mg/dL
Ca (3 h): 10.4 mg/dL
Cl (3 h): 106 meq/L
DBIL (3 h): 0 mg/dL
GLC (3 h): 169.4 mg/dL
IP (3 h): 9.2 mg/dL
K (3 h): 4.2 meq/L
LDH (3 h): 228.2 IU/L
Na (3 h): 142 meq/L
PL (3 h): 127.6 mg/dL
RALB (3 h): 3.1 g/dL
TBIL (3 h): 0.01 mg/dL
TC (3 h): 71.2 mg/dL
TG (3 h): 78.8 mg/dL
TP (3 h): 5.3 g/dL
gamma-GTP (3 h): 1 IU/L
TERMINAL_BW (6 h): 211.5 g
APTT (6 h): 22.7 s
Bas (6 h): 0%
Eos (6 h): 1%
Fbg (6 h): 309.8 mg/dL
Hb (6 h): 13.7 g/dL
Ht (6 h): 39.8%
Lym (6 h): 78.6%
MCH (6 h): 20.8 pg
MCHC (6 h): 34.4%
MCV (6 h): 60.7 fL
Mono (6 h): 2.6%
Neu (6 h): 17.2%
PT (6 h): 16.2 s
Plat (6 h): 128.2 x10_4/uL
RBC (6 h): 657.2 x10_4/ul
Ret (6 h): 8.4%
WBC (6 h): 94.1 x10_2/uL
KIDNEY_L (6 h): 0.9 g
KIDNEY_R (6 h): 1 g
KIDNEY_TOTAL (6 h): 1.9 g
LIVER (6 h): 9.6 g
A/G (6 h): 1.3
ALP (6 h): 1398.4 IU/L
ALT (6 h): 39.2 IU/L
AST (6 h): 72.8 IU/L
BUN (6 h): 11.2 mg/dL
CRE (6 h): 0.1 mg/dL
Ca (6 h): 10.5 mg/dL
Cl (6 h): 106.4 meq/L
DBIL (6 h): 0 mg/dL
GLC (6 h): 173 mg/dL
IP (6 h): 9.6 mg/dL
K (6 h): 4.4 meq/L
LDH (6 h): 273.4 IU/L
Na (6 h): 141.8 meq/L
PL (6 h): 137.4 mg/dL
RALB (6 h): 3 g/dL
TBIL (6 h): 0.018 mg/dL
TC (6 h): 73 mg/dL
TG (6 h): 66 mg/dL
TP (6 h): 5.4 g/dL
gamma-GTP (6 h): 1 IU/L
TERMINAL_BW (9 h): 210 g
APTT (9 h): 20.9 s
Bas (9 h): 0%
Eos (9 h): 0.8%
Fbg (9 h): 301.6 mg/dL
Hb (9 h): 13.2 g/dL
Ht (9 h): 38.3%
Lym (9 h): 79%
MCH (9 h): 21.2 pg
MCHC (9 h): 34.4%
MCV (9 h): 61.8 fL
Mono (9 h): 1.8%
Neu (9 h): 18%
PT (9 h): 16.3 s
Plat (9 h): 122.7 x10_4/uL
RBC (9 h): 620.2 x10_4/ul
Ret (9 h): 9%
WBC (9 h): 63.3 x10_2/uL
KIDNEY_L (9 h): 1 g
KIDNEY_R (9 h): 1 g
KIDNEY_TOTAL (9 h): 2 g
LIVER (9 h): 9.4 g
A/G (9 h): 1.4
ALP (9 h): 1227.2 IU/L
ALT (9 h): 36.8 IU/L
AST (9 h): 70.8 IU/L
BUN (9 h): 9.6 mg/dL
CRE (9 h): 0.1 mg/dL
Ca (9 h): 10.7 mg/dL
Cl (9 h): 105.6 meq/L
DBIL (9 h): 0.006 mg/dL
GLC (9 h): 178 mg/dL
IP (9 h): 10.2 mg/dL
K (9 h): 4.3 meq/L
LDH (9 h): 198.2 IU/L
Na (9 h): 142.2 meq/L
PL (9 h): 119.4 mg/dL
RALB (9 h): 3.1 g/dL
TBIL (9 h): 0.022 mg/dL
TC (9 h): 64 mg/dL
TG (9 h): 40.8 mg/dL
TP (9 h): 5.4 g/dL
gamma-GTP (9 h): 1 IU/L
TERMINAL_BW (24 h): 212.6 g
APTT (24 h): 20.5 s
Bas (24 h): 0%
Eos (24 h): 0.8%
Fbg (24 h): 302.4 mg/dL
Hb (24 h): 13.9 g/dL
Ht (24 h): 40.3%
Lym (24 h): 79.4%
MCH (24 h): 21.1 pg
MCHC (24 h): 34.5%
MCV (24 h): 61.3 fL
Mono (24 h): 3%
Neu (24 h): 16.2%
PT (24 h): 16.1 s
Plat (24 h): 123.3 x10_4/uL
RBC (24 h): 658.2 x10_4/ul
Ret (24 h): 7%
WBC (24 h): 70.1 x10_2/uL
KIDNEY_L (24 h): 1 g
KIDNEY_R (24 h): 1 g
KIDNEY_TOTAL (24 h): 1.9 g
LIVER (24 h): 10.4 g
A/G (24 h): 1.4
ALP (24 h): 1607.2 IU/L
ALT (24 h): 47.8 IU/L
AST (24 h): 75 IU/L
BUN (24 h): 15.8 mg/dL
CRE (24 h): 0.2 mg/dL
Ca (24 h): 10.5 mg/dL
Cl (24 h): 107 meq/L
DBIL (24 h): 0.002 mg/dL
GLC (24 h): 172 mg/dL
IP (24 h): 7.8 mg/dL
K (24 h): 4.3 meq/L
LDH (24 h): 182 IU/L
Na (24 h): 142.2 meq/L
PL (24 h): 182.4 mg/dL
RALB (24 h): 3.2 g/dL
TBIL (24 h): 0.004 mg/dL
TC (24 h): 77 mg/dL
TG (24 h): 108 mg/dL
TP (24 h): 5.5 g/dL
gamma-GTP (24 h): 1 IU/L
